According to PubChem BioAssay AID504861 (Broad Institute, 2011):
Activity calls are given as the source filed them.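 Rule for the calls: active = compounds lowering cell viability signal with fitted half-maximal concentration at most ten times their highest tested concentration; inconclusive = flat fit with 30 to 70% signal loss, or poor fit; inactive = the rest.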

The molecules below were run on HEK293T viability, CellTiter-Glo ATP luminescence, 48 h (assay: HEK293T cell viability reduction, dose response, cytotoxicity control for LMP1 NF-kB inhibitor project, CellTiter-Glo luminescence, cherry-picks (AID 504861)).
For `COc1cccc(/C=N/Nc2ncnc(Cl)c2N)c1O`, the AC50 was 3.23 µM. `CCN(CC)C(=O)c1ccc(NC(=O)Nc2ccccc2F)cc1` was tested, and the AC50 was 2.41 µM. In the case of `Cc1csc(N=Nc2ccc(N(C)C)cc2)[n+]1[O-]`, the AC50 is reported as 5.71 µM. In the case of `CC(=NNC(=S)N1CCCCC1)c1cccc(C)n1`, the AC50 is reported as > 26 µM (inactive). `COc1ccccc1NC(=O)c1c(Nc2ccccc2C)sc(C(=O)Nc2cccc(Cl)c2)c1N` was tested, and the AC50 was 4.52 µM. Molecule `Nc1ccc(C(=O)N/N=C\c2cc(N=Nc3cccc4ccccc34)ccc2O)cc1` has an AC50 of 26.5 µM. In the case of `O=C(N/N=C/c1c(O)ccc2ccccc12)c1cccnc1`, the AC50 is reported as 8.72 µM. `C[n+]1c2n(c3ccccc31)N=C(c1cc(C(C)(C)C)c(O)c(C(C)(C)C)c1)CS2` showed an AC50 of 9.45 µM. `Cc1[nH]n(-c2ccccc2)c(=O)c1/C=N/Nc1nncc(-c2ccccc2)n1` was tested, and the AC50 was 2.64 µM. Work on `COc1ccc(C(NC(C)=O)c2cc(Cl)c3cccnc3c2O)cc1` (stereo unspecified) yielded an AC50 of 4.88 µM. In the case of `C=CCn1c(O)c(N=NC(=S)Nc2ccccc2F)c2cc(S(=O)(=O)N3CCOCC3)ccc21`, the AC50 is reported as > 26 µM (inactive). With `COc1ccc(Cc2nnc(N/N=C/c3ccc(O)cc3)[nH]c2=O)cc1OC` the AC50 was 3.56 µM. Molecule `CCC(C)Nc1nc(-c2ccccn2)nc2ccccc12` (stereo unspecified) has an AC50 of 4.04 µM. With `C=C1C(=O)C2=CC1CCC(=O)C1(C)CCC(OC(C)=O)C(C)(C)C1CC2O` (stereo unspecified) the AC50 was 11.3 µM. In the case of `C#CCN(C[C@@H]1[C@@H](OC(=O)NCCCCCC)[C@@H](OC(=O)NCCCCCC)Cn2c(=O)ccc(=O)n21)S(=O)(=O)c1ccc(C)cc1`, the AC50 is reported as 4.1 µM. `CCN(CC)c1ccc(/C=N/NC(=O)c2c(Cl)cnn2C)c(O)c1` was tested, and the AC50 was 2.81 µM. `CCOc1ccc(C(=O)Nc2cc(C)ccn2)cc1` was tested, and the AC50 was 13.8 µM. Work on `CCOC(=O)c1c(C)[nH]c(C(=O)N/N=C\c2ccccc2O)c1C` yielded an AC50 of 4.09 µM. `CC(=O)NC(c1cccs1)c1cc(F)c2cccnc2c1O` (stereo unspecified) was tested, and the AC50 was 4.67 µM. `CCOc1ccc(/C=C/[N+](=O)[O-])c2ccccc12` showed an AC50 of 11.8 µM. `O=C(Nc1nc2ccc(F)cc2s1)C1=COCCO1` gave an AC50 of 18.7 µM. Molecule `CC(=NNc1nc2ccccc2o1)c1cc2ccccc2cn1` has an AC50 of 0.252 µM. `CCC(NC(=O)Nc1nnc(C(F)(F)F)s1)(C(F)(F)F)C(F)(F)F` gave an AC50 of 9.8 µM. For `COc1ccc(OCc2cccc(C(=O)NN)c2)cc1`, the AC50 was > 26 µM (inactive). `COc1ccc(N/N=C/c2c(C(=O)O)ccc3ccccc23)cc1` gave an AC50 of 4.11 µM. Molecule `CCN1CCN(Cc2ccc(NC(=O)c3ccc(C)c(NC(=O)c4nccnc4N)c3)cc2C(F)(F)F)CC1` has an AC50 of 23.6 µM. Work on `CN(Cc1cnc2nc(N)nc(N)c2n1)c1ccc(C(=O)N[C@@H](CCC(=O)O)C(=O)O)cc1` yielded an AC50 of 0.016 µM. With `CCCCC(=O)NC(c1ccc(Cl)cc1)c1ccc2cccnc2c1O` (stereo unspecified) the AC50 was 4.35 µM. `O=C(CCl)N(c1ccc(Cl)cc1)c1c[nH]c2ccccc12` gave an AC50 of 1.19 µM. `C=CCn1c(O)c(N=NC(=S)Nc2cccc(C)c2)c2ccccc21` was tested, and the AC50 was > 26 µM (inactive). `COc1cc(C=C2CCCC(=Cc3ccc(OCC4CO4)c(OC)c3)C2=O)ccc1OCC1CO1` (stereo unspecified) showed an AC50 of 24.3 µM. With `Cc1nc(N)nc(N)c1/C=C/C(C)(C)c1ccc(Cl)cc1` the AC50 was < 0.011 µM. For `CCN1CCN(Cc2ccc(NC(=O)c3ccc(C)c(NC(=O)c4cccc5[nH]ccc45)c3)cc2C(F)(F)F)CC1`, the AC50 was 22.3 µM. Work on `COc1ccc2c(c1)/C(=C/c1cnc[nH]1)C(=O)N2` yielded an AC50 of 23.1 µM. `COc1ccc(NC2=NCC(Cc3ccc(Br)cc3)S2)cc1` (stereo unspecified) showed an AC50 of 26.2 µM. Work on `COc1ccccc1N(C(C)=O)C1=C(Cl)C(=O)c2ccccc2C1=O` yielded an AC50 of 11.7 µM. `COc1ccc(C(=O)Nn2c(SCC(=O)NC3CCCCC3)nc3ccccc3c2=O)cc1` was tested, and the AC50 was > 26 µM (inactive). In the case of `Cc1cc(=O)[nH]c(NN=Cc2cc(Br)ccc2O)n1`, the AC50 is reported as 3.36 µM. In the case of `COc1ccc(O)c(/C=N/NC(=O)c2ccc(OCc3cccc(Br)c3)cc2)c1`, the AC50 is reported as 4.45 µM. Work on `O=C(N/N=C/c1sc2ccccc2c1O)c1cccc2ccccc12` yielded an AC50 of 4.96 µM. `S=C(NN=Cc1ccccn1)Nc1ccccn1` gave an AC50 of 23 µM. `CCCc1nc2ccc(Br)cc2c(=O)n1-c1ccc([N+](=O)[O-])c(C(F)(F)F)c1` was tested, and the AC50 was 4.2 µM. With `S=C(NCCCN1CCOCC1)N1CCN(c2nc(-c3ccc(Cl)cc3)cs2)CC1` the AC50 was > 26 µM (inactive). `CS(=O)(=O)c1ncc(Cl)c(C(=O)Nc2ccc(OC(F)F)cc2)n1` showed an AC50 of 3.2 µM. `O=C1C(=C(c2ccccc2)N2CCOCC2)Cc2ccccc21` gave an AC50 of 1.38 µM. With `CCN1CCN(Cc2ccc(NC(=O)c3ccc(C)c(/C=C/c4cnc(Nc5cc(N6CCNCC6)nc(C)n5)cn4)c3)cc2C(F)(F)F)CC1` the AC50 was 14.3 µM. With `CCOc1ccc(OCc2cccc(C(=O)N/N=C/c3cccnc3)c2)cc1` the AC50 was > 26 µM (inactive). In the case of `Oc1cccc2ccc(Nc3ccccn3)nc12`, the AC50 is reported as 8.91 µM. `CC(=NNC(=S)Nc1cccc(Cl)c1)c1ccccn1` was tested, and the AC50 was 0.687 µM. In the case of `Cn1c(/C=C/c2ccccc2)nc2ccccc21`, the AC50 is reported as 9.76 µM. In the case of `O=C1c2ccccc2C(Nc2ccc(Cl)cc2)N1CCN1CCOCC1` (stereo unspecified), the AC50 is reported as > 26 µM (inactive). For `CCN1C(=O)[C@@H]2[C@@H](c3ccc(-c4ccc(Cl)c(Cl)c4)cc3)N3CCC[C@@]3(C(=O)OC)[C@@H]2C1=O`, the AC50 was > 26 µM (inactive). Work on `C/C(=N\NC(=O)c1cccc(Br)c1)c1ccccn1` yielded an AC50 of 3.59 µM. `CCC(=O)NC(c1ccc(C)cc1)c1ccc2cccnc2c1O` (stereo unspecified) showed an AC50 of 4.33 µM. For `CC(=O)NC(c1ccc(Cl)cc1Cl)c1ccc2cccnc2c1O` (stereo unspecified), the AC50 was 1.63 µM. In the case of `CCC(=O)NC(c1ccc(Cl)cc1Cl)c1ccc2cccnc2c1O` (stereo unspecified), the AC50 is reported as 8.21 µM.
